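1) Cells in 96-well plates. 2) Compound, 48 h, 5 concentrations. 3) Linear interpolation between surrounding doses. 4) Unreached endpoint = highest concentration. Here, GI50 denotes the concentration required for 50% inhibition of growth. TGI: total growth inhibition.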
How the values were obtained:
Assay in all cases: growth of human tumour cells (NCI), 48 h
HCC-2998 colon = system: HCC-2998 colon
MDA-MB-435 = system: MDA-MB-435
SF-539 CNS = system: SF-539 CNS
HL-60(TB) leukemia = system: HL-60(TB) leukemia
ACHN renal = system: ACHN renal
CAKI-1 renal = system: CAKI-1 renal
PC-3 prostate = system: PC-3 prostate
COLO 205 colon = system: COLO 205 colon
MOLT-4 leukemia = system: MOLT-4 leukemia
TK-10 renal = system: TK-10 renal

Row | Compound | TGI (HCC-2998 colon) [µM] | TGI (MDA-MB-435) [µM] | TGI (SF-539 CNS) [µM] | TGI (HL-60(TB) leukemia) [µM] | TGI (ACHN renal) [µM] | TGI (CAKI-1 renal) [µM] | TGI (PC-3 prostate) [µM] | TGI (COLO 205 colon) [µM] | TGI (MOLT-4 leukemia) [µM] | TGI (TK-10 renal) [µM] | GI50 (HCC-2998 colon) [µM] | GI50 (MDA-MB-435) [µM] | GI50 (SF-539 CNS) [µM] | GI50 (HL-60(TB) leukemia) [µM] | GI50 (ACHN renal) [µM] | GI50 (CAKI-1 renal) [µM] | GI50 (PC-3 prostate) [µM] | GI50 (COLO 205 colon) [µM] | GI50 (MOLT-4 leukemia) [µM] | GI50 (TK-10 renal) [µM]
1 | CCCCCCCCCCCCCCCC(=O)OCC(O)C1OC(=O)C(O)=C1O (configuration not stated) | > 100 | 42.4 | 53.2 | 65.9 | 98.7 | 96.6 | > 100 | > 100 | > 100 |  |  |  |  |  |  |  |  |  |  | 
2 | C=C1CC(CCCl)(c2ccccc2)OC1=O (configuration not stated) | > 100 |  | > 62 | 44.8 | > 56.3 |  |  | > 58 | 49.9 | > 77.7 |  |  |  |  |  |  |  |  |  | 
3 | CCCNCc1nc2ccc(Br)cc2c(=O)n1CCC |  |  | 29.5 | 30.8 | 29.6 |  |  | 27.7 | > 100 |  |  |  |  |  |  |  |  |  |  | 
4 | N=C(N)SCCc1cn2ccccc2n1 | > 100 |  | > 100 | > 100 | > 100 | > 100 |  | > 100 | > 100 | > 100 |  |  |  |  |  |  |  |  |  | 
5 | Cc1ccccc1C(=O)Oc1ccc(Oc2ccccc2)cc1 | > 100 |  | > 100 | > 100 | > 100 | > 100 |  | > 100 | > 100 | > 100 |  |  |  |  |  |  |  |  |  | 
6 | Nc1ccc(Nc2nc(F)nc(-c3c4ccccc4c4n3CCS4)n2)cc1 | 44.8 |  | 27.6 |  | 25.3 | 23.6 |  | 41.5 | 50.9 | 34.2 |  |  |  |  |  |  |  |  |  | 
7 | N=C(c1ccccc1)N(O)C1CCCCC1 | > 100 |  | > 100 | > 100 |  | > 100 |  | > 100 |  | > 100 |  |  |  |  |  |  |  |  |  | 
8 | CC(=O)O[C@@H]1CO[C@H]2O[C@H]3[C@@H](C(C=O)=C[C@H](O)[C@@H]4C5=C(C(C)C)CC[C@]5(C)CC[C@@]34C)[C@@]2(O)C1=O | 1.27 | 0.393 | 0.37 |  | 0.281 | 0.486 | 0.368 | 0.249 | 0.28 | 0.596 |  |  |  |  |  |  |  |  |  | 
9 | O=C(Nc1c(-c2nc3ccccc3[nH]2)sc(=S)n1-c1ccccc1)c1ccccc1 | > 100 |  | > 100 | > 100 | > 100 | > 100 |  | > 100 | > 100 | > 100 |  |  |  |  |  |  |  |  |  | 
10 | O=C(OCCOCBr)c1ccccc1 | > 100 |  | > 100 | > 100 | > 100 | > 100 |  | > 100 | > 100 | > 100 |  |  |  |  |  |  |  |  |  | 
11 | CN(C)CCNc1ccc([N+](=O)[O-])c2nc3ccccc3c(N)c12 |  | 2.61 | 4.48 | 6.86 | 3.51 | > 10 | 2.87 | 1.84 | 4.74 | > 10 |  |  |  |  |  |  |  |  |  | 
12 | CCCCC(=O)N/N=C/c1cc(I)cc(I)c1O | > 100 | 23.9 | 12.8 | 7.27 | 13.4 | 10.5 | 20.9 | 26.9 | 13 |  | 11.1 | 5.54 | 2.99 | 2.49 | 2.4 | 1.58 | 3.35 | 3.59 | 2.39 | 
13 | O=C(COc1cccc(/C=C2\COc3ccccc3C2=O)c1)Nc1nccs1 | 3.48 | 7.53 | 31.2 | 3.44 | 3.55 | 3.56 | 3.46 | 5.24 |  | 5.52 | 1.95 | 2.51 | 14.7 | 1.59 | 1.86 | 1.61 | 1.37 | 2.26 |  | 3.05
14 | Nc1ccc2c(c1)C(=O)c1c(F)cccc1-2 | > 100 | > 100 | 81.1 |  | > 100 | > 100 | > 100 | > 100 |  | > 100 |  |  |  |  |  |  |  |  |  | 
15 | Cn1c(CCC#N)nc2ccc(Br)cc2c1=O | > 100 |  | > 100 | > 100 | > 100 | > 100 |  | > 100 | > 100 | > 100 |  |  |  |  |  |  |  |  |  | 
16 | COc1ccc2[nH]cc(-c3nc(-c4cn(C)c5ccncc45)cs3)c2c1 | 3.42 | 3.22 | 3.37 | 4.12 | 3.21 | 3.35 | 4.13 |  |  | 3.12 | 1.88 | 1.71 | 1.9 | 1.9 | 1.82 | 1.84 | 1.98 |  |  | 1.48
17 | COc1cc2c(c(OC)c1OC)-c1[nH]ncc1CC2 | > 100 |  | > 100 | > 100 | > 100 | > 100 |  | > 100 | > 100 | > 100 |  |  |  |  |  |  |  |  |  | 
18 | CCOC(=O)/N=C(\N)SCc1ccccc1 | > 100 |  | > 100 | > 100 | > 100 | > 100 |  |  | > 100 | > 100 |  |  |  |  |  |  |  |  |  | 
19 | CC(C)C(=O)N[C@@H](C)C(=O)N(Cc1ccc2ccccc2c1)N=O | > 100 |  | > 100 |  | > 100 | > 100 |  | > 100 | > 100 | > 100 |  |  |  |  |  |  |  |  |  | 
20 | O=c1/c(=C/c2ccc(Cl)cc2Cl)sc2nc3ccccc3n12 | > 100 |  | > 100 | > 100 | > 100 | > 100 |  | > 100 | > 100 | > 100 |  |  |  |  |  |  |  |  |  | 
21 | O=S1(=O)CCN(Cc2ccccn2)CC1 | > 100 | > 100 | > 100 |  | > 100 | > 100 | > 100 | > 100 |  | > 100 |  |  |  |  |  |  |  |  |  | 
22 | Nc1cc(-c2ccccc2)ccc1O |  | > 100 | > 100 | > 100 | > 100 | 79.9 | > 100 | > 100 | > 100 | > 100 |  | > 100 | > 100 | 45.4 | 54.6 | 17.9 | 21.6 | > 100 | 51.9 | > 100
23 | C(=C\c1csnn1)/c1cccnc1 | > 100 |  | > 100 | > 100 | > 100 |  |  | > 100 | > 100 | > 100 |  |  |  |  |  |  |  |  |  | 
24 | O=c1c2ccc3cccc4c(=O)cc(c5ccccc15)-c2c34 | > 100 |  |  | > 100 | > 100 | > 100 |  | > 100 | > 100 | > 100 |  |  |  |  |  |  |  |  |  | 
